Reference: patent US20240139162A1, “Benzophenanthridine Alkaloids and Their Methods of Use” (Chengdu Anticancer Bioscience, LTD., priority 2019, published 2024)
Entries after “also recorded” stand apart in the source; their conditions may differ.

Experiments:
human cancer cell lines = assay: MTT assay, human cancer cell lines; format: cell-based; settings: with the exception of T98G (FIG. 13)
Description: Cells were split, plated in appropriate culture media and allowed to adhere. After 18 hours, corynoline and acetylcorynoline were added to a cell line selected from below. At 72 h or 96 h, MTT was added and at 75 h or 99 h, the A570 nm was recorded. The concentration ranged from 0.02 μM to 40 μM. Taxol was used as a positive control, which has a known IC50 value of less than 0.02 μM in all tested cell lines.
The following human cancer cell lines, representing a breadth of cancer subtypes, were used in these studies: Hela, C32, NCI-H23, HCT116 p53-/-, HCT116 wild type, MDA-MB-175IV, MDA-MB-231, MDA-MB-435, MCF-7, A431, H460, TUWI, CaoV-3, T98G, and HTB135.

RPE-MBH cells = assay: IC50 in RPE-MBH cells (Table 1); format: cell-based, human; settings: Homo sapiens, 72 h, RPE-MBH, treatment 72 h; read-out: IC50
Description: (§1) Cells were split, plated in appropriate culture media and allowed to adhere. After 18 hours, corynoline and acetylcorynoline were added to a cell line selected from below. At 72 h or 96 h, MTT was added and at 75 h or 99 h, the A570 nm was recorded. The concentration ranged from 0.02 μM to 40 μM.
(§2) The following RPE cell lines were used in these studies: RPE NEO, RPE MBH, RPE MBC, RPE MA, RPE MP, RPE MI, and RPE MYC Nick. This RPE series were derived from human retinal pigment epithelium and then stably transfected with an hTERT expression construct for immortalization. The resulting cell line was then engineered to overexpress the MYC oncogene (RPE-MYC) or a Neomycin selection marker gene (RPE-NEO). In RPE-MYC cells, a variety of other oncogenes such as Myr-AKT, BCL2, ID1 and PI3K^E45k were further introduced individually to generate the cell lines RPE MA, RPE MBC, RPE MI, RPE MP, respectively. As a control, H2BGFP was introduced into RPE-MYC cells to generate RPE MBH.
(§3) The effect of the compounds chelidonine and protopine on cell division was assessed similarly to corynoline and acetylcorynoline above. As described in Example 6 above, as cells enter and become arrested in mitosis, they detach from the plate surface and appear as rounded cells with a smooth surface membrane. RPE-MBC cells (ectopically expressing oncogenes MYC and Bcl2) were treated with DMSO, chelidonine and protopine, and compared against controls Michael's ketone (MK) and taxol.

RPE-Neo cells = assay: IC50 in RPE-Neo cells (Table 2); format: cell-based, human; settings: Homo sapiens, 72 h, RPE-Neo, treatment 72 h; read-out: IC50
Description: as §1, §2, §3

IMR 90 cells = assay: IC50 in IMR 90 cells (Table 2); format: cell-based; settings: Homo sapiens, IMR-90, 72 h, IMR 90, treatment 72 h; read-out: IC50
Description: as §1, §3

Rat1A cells = assay: IC50 in Rat1A cells (Table 2); format: cell-based; settings: 72 h, Rat1A, treatment 72 h; read-out: IC50
Description: as §1
The following Rat1A cell lines were used in these studies: Rat1 A C, Rat1A MYC, Rat1A E2F1, and Rat1A E2F3. The cell line was then engineered as control (C), to overexpress the MYC oncogene (Rat1A-MYC), to overexpress the E2F1 oncogene (Rat1A-E2F1), or to overexpress the E2F3 oncogene (Rat1A-E2F3).
as §3

3T3 MEF cells = assay: IC50 in 3T3 MEF cells (Table 2); format: cell-based; settings: Mus musculus, MEF, 72 h, 3T3 MEF, treatment 72 h; read-out: IC50
Description: as §1, §3

RPE-MBC cells = assay: Mitotic arrest (cell round-up, phospho-Histone H3) and polyploidy (DAPI) assay; format: cell-based, human
Description: For screening for bioactive fractions, cells were cultured in 96-well plates, and exposed to crude extracts, partially purified fractions or pure compounds at the concentrations indicated in the figure legends. Exposure was for 24 or 48 hours before analysis of cells for either an arrest in mitosis using an inverted microscope or for a change in DNA content after 4′,6′-diamidino-2-phenylindole (DAPI) staining by fluorescence microscopy.
(§4) Cells were cultured on coverslips in a 6-well plate, fixed with 4% paraformaldehyde and then permeabilized with 0.3% Triton X-100 in PBS. Primary antibody was detected with Texas-Red-conjugated secondary antibodies that were purchased from Jackson ImmunoResearch. After immunostaining, cells were mounted on microscope slides with 4′,6′-diamidino-2-phenylindole (DAPI)-containing Vectashield mounting solution (Vector Laboratories) for detection of fluorescence with an EVOS FL fluorescence microscope (ThermoFisher).
Cellular “round-up” was used as a surrogate marker for mitotic arrest and could easily be assayed using an inverted tissue culture microscope. […] Mitotic arrest was judged by cell round-up observed under an inverted tissue culture microscope 24 hours after exposing cells to the library.
As cells enter and become arrested in mitosis, they detach from the plate surface and appear as rounded cells with smooth surface membrane, distinct from detached cells that are undergoing programmed cell death. Simple visual screening method was used to assay thousands of extracts. […] To identify bioactive components that are able to interfere with mitosis, 3 kg of Corydalis longicalcarata rhizome were recollected and performed bioactivity-guided extraction, isolation, and purification. The air dried and powdered material was extracted with 70% ethanol assisted by exposure to ultrasonic waves.

RPE MBC cells [1] = assay: Spindle pole assembly by β-tubulin / Histone H3ser10P immunofluorescence; format: cell-based, human
Description: Microtubule assembly, specifically spindle pole assembly, was altered by treatment with acetylcorynoline. RPE MBC cells were treated with acetylcorynoline and Histone H3 Serine 10 Phosphorylation (Histone H3ser10p, shown in FIG. 4 and FIG. 5 in red), β-tubulin (green) and DNA (blue) was analyzed by immunofluorescence microscopy. Histone H3ser10P was used to determine the cells that were in early mitosis (e.g., prometaphase or metaphase). β-tubulin was used to examine microtubule localization and spindle assembly within the cells.
Similarly to corynoline and acetylcorynoline above, it was determined that microtubule assembly, specifically spindle pole assembly, was altered by treatment with chelidonine.

RPE MBC cells [2] = assay: Mitotic kinetochore analysis with CREST antibody; format: cell-based, human
Description: Following treatment with acetylcorynoline, RPE MBC cells were prepared for immunofluorescence analysis with CREST serum (staining shown in FIG. 6 and FIG. 7 in red).

cells = assay: Progression through mitosis by time-lapse microscopy; format: cell-based
Description: Time lapse microscopy was used to compare progression through mitosis for cells treated with acetylcorynoline and the DMSO control group, beginning at prophase.

aurora-B kinase = assay: Phosphorylation of Histone 3 at Ser10 as surrogate of aurora-B kinase activity; format: cell-based
Description: as §4

## CC(=O)O[C@H]1Cc2cc3c(cc2[C@H]2N(C)Cc4c(ccc5c4OCO5)[C@@]12C)OCO3 [Acetylcorynoline, (5bR,6S,12bR)-5b,6,7,12b,13,14-Hexahydro-5b,13-dimethyl-[1,3]benzodioxolo[5,6-c]-1,3-dioxolo[4,5-i]phenanthridin-6-ol 6-acetate]
Human cancer cell lines
  IC50 compared with the other compound: higher than those for corynoline
RPE-MBH cells
  IC50: 12.6 µM
RPE-Neo cells
  IC50: > 40 µM
IMR 90 cells
  IC50: > 40 µM
Rat1A cells
  IC50: 27.4 µM
3T3 MEF cells
  IC50: 23 µM
RPE-MBC cells; 10 μM and 20 μM, 48 hours
  polyploidy compared to DMSO control: polyploidy was induced
RPE-MBC cells; 24 hours after treatment
  mitotic arrest: can arrest mitosis within 24 hours of treatment; also recorded: Nearly all cells entered and arrested in mitosis
RPE-MBC cells; 48 hours after treatment
  polyploidy (DAPI staining): induce polyploidy at 48 hours; also recorded: induced polyploidy; also recorded: Polyploidy was observed; also recorded: demonstrates polyploidy
RPE-MBC cells; FIG. 15
  minimal effective concentration for mitotic arrest and polyploidy relative to corynoline: 2 fold
  mitotic arrest and polyploidy, dependence on concentration: concentration-dependent
RPE-MBC cells; within 48-hour treatment
  persistence of the arrest of cells in mitosis: transient
RPE MBC cells [1]; 6 hours of treatment
  cells in prometaphase (Histone H3ser10P staining): Numerous mitotic cells accumulated in prometaphase; also recorded: high numbers of cells arresting in prometaphase
  spindle formation (β-tubulin staining): monopolar spindles were formed; also recorded: abnormal spindle polarization in mitosis
RPE MBC cells [1]; 24 hours of treatment
  spindle formation (β-tubulin staining): multipolar spindles were formed; also recorded: multipolar spindle formation in mitosis
RPE MBC cells [2]
  kinetochore arrangement (CREST staining): kinetochore arrangement was disturbed
cells; time lapse
  cytofission: prevented cytofission
  initiation of cytokinesis: does not affect the initiation of cytokinesis
cells; time lapse beginning at prophase
  time spent in early mitosis compared to a control cell: three-times longer
aurora-B kinase
  phosphorylation of Histone 3 at Ser10: not affected
